The text below walks through data of PMC7958344, “Development of Novel Inhibitors Targeting the D-Box of the DNA Binding Domain of Androgen Receptor” (International Journal of Molecular Sciences, 2021).

A short description of the data set: Metabolic stability in human microsomes. The conditions noted are these: microsomal stability, Table 1, read-out: Half-Life. In kind it is in vitro ADME. From the text:
We then tested the metabolic stability of these molecules using human microsomes. […] This could explain the lower potency of this compound in cell growth assays, as it is metabolized quickly in the media.

Regarding `CNC(=O)c1ccc(N2C(=S)N(c3ccc(C#N)c(C(F)(F)F)c3)C(=O)C2(C)C)cc1F` [Enzalutamide, reference compound], the half-life is over 16.7 h.

Broadly, the half-life is the time in which the quantity being followed falls by half.
